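Assay format: 96-well plates, 48-hour exposure. GI50 marks 50% less growth.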 Active and inactive are the calls of the source. No stated cut-off is given here; in the data, active = GI50 up to about 1.1 µM and inactive = higher.
Tests used:
Assay in all cases: growth of human tumour cells (NCI), 48 h
MDA-N = system: MDA-N
RXF 393 = system: RXF 393
PC-3 = system: PC-3
T47D = system: T47D
SK-MEL-28 = system: SK-MEL-28
RPMI-8226 = system: RPMI-8226
SK-MEL-5 = system: SK-MEL-5
SF-295 = system: SF-295
M14 = system: M14
A549 = system: A549
MDA-MB-231 = system: MDA-MB-231
SF-268 = system: SF-268
EKVX = system: EKVX
NCI-H460 = system: NCI-H460
BT-549 = system: BT-549
HOP-62 = system: HOP-62
CCRF-CEM = system: CCRF-CEM
HL-60 = system: HL-60
A498 = system: A498

SMILES | GI50 (MDA-N) | GI50 (RXF 393) | GI50 (PC-3) | GI50 (T47D) | GI50 (SK-MEL-28) | GI50 (RPMI-8226) | GI50 (SK-MEL-5) | GI50 (SF-295) | GI50 (M14) | GI50 (A549) | GI50 (MDA-MB-231) | GI50 (SF-268) | GI50 (EKVX) | GI50 (NCI-H460) | GI50 (BT-549) | GI50 (HOP-62) | GI50 (CCRF-CEM) | GI50 (HL-60) | GI50 (A498)
O=[N+]([O-])c1ccc(-[n+]2ccc3ccccc3c2)c([N+](=O)[O-])c1 | 2.33 µM (inactive) | 1.92 µM (inactive) | 3.93 µM (inactive) | 2.01 µM (inactive) | 2.83 µM (inactive) | 2.32 µM (inactive) | 2.64 µM (inactive) | 14.8 µM (inactive) | 4.55 µM (inactive) | 16.4 µM (inactive) | 3.62 µM (inactive) | 3.12 µM (inactive) | 6.73 µM (inactive) | 10.9 µM (inactive) | 4.83 µM (inactive) | 8.18 µM (inactive) | 1.54 µM (inactive) | 1.54 µM (inactive) | 14.8 µM (inactive)
COc1ccc2nc3cc([N+](=O)[O-])ccc3c(NNc3ccc([N+](=O)[O-])cc3)c2c1 | 30.5 µM (inactive) | 44.1 µM (inactive) | 22.4 µM (inactive) | 37.6 µM (inactive) | 68.2 µM (inactive) | 18.7 µM (inactive) | 19.8 µM (inactive) | 22 µM (inactive) | 43.4 µM (inactive) | 7.18 µM (inactive) | 44 µM (inactive) | 54.7 µM (inactive) | 44.1 µM (inactive) | 3.16 µM (inactive) | 43.1 µM (inactive) | 57.3 µM (inactive) | 30.8 µM (inactive) | 20.3 µM (inactive) | 0.0951 µM (active)
CCN(CC)C1Oc2cc3c(cc2C(c2cccc(OC)c2OC)C1C)OCO3 (stereo not given) | 8.59 µM (inactive) | 2.23 µM (inactive) | 4.03 µM (inactive) | 3.42 µM (inactive) | 14.9 µM (inactive) | 1.48 µM (inactive) | 6.84 µM (inactive) | 3.16 µM (inactive) | 12.1 µM (inactive) | 4.46 µM (inactive) | 13.3 µM (inactive) | 7.91 µM (inactive) | 13.1 µM (inactive) | 3.63 µM (inactive) | 3.4 µM (inactive) | 10.8 µM (inactive) | 2.17 µM (inactive) | 1.88 µM (inactive) | 5.81 µM (inactive)
O=C(CSc1ncccn1)N/N=C/c1ccccc1OCc1ccccc1 | 10.8 µM (inactive) | 21.9 µM (inactive) | 28.8 µM (inactive) | 24.8 µM (inactive) | 36.6 µM (inactive) | 19.5 µM (inactive) | 14.8 µM (inactive) | 21.6 µM (inactive) | 29.2 µM (inactive) | 71.8 µM (inactive) | 30.9 µM (inactive) | 43 µM (inactive) | 27.9 µM (inactive) | 30.1 µM (inactive) | 25 µM (inactive) | 28.2 µM (inactive) | 15.3 µM (inactive) | 21.1 µM (inactive) | 22.1 µM (inactive)
O=C(O)c1ccc(C(=O)O)c(C(=O)Nc2ccc3c(c2)C(=O)c2ccccc2-3)c1 | > 100 µM (inactive) | > 100 µM (inactive) | > 100 µM (inactive) | > 100 µM (inactive) | > 100 µM (inactive) | > 100 µM (inactive) | > 100 µM (inactive) | > 100 µM (inactive) | > 100 µM (inactive) | > 100 µM (inactive) | > 100 µM (inactive) | > 100 µM (inactive) | > 100 µM (inactive) | > 100 µM (inactive) | > 100 µM (inactive) | > 100 µM (inactive) | 48 µM (inactive) | 55.6 µM (inactive) | > 100 µM (inactive)
CCCNC(=O)CCC(C)[C@H]1CCC2C3C(C[C@H](OC(C)=O)[C@@]21C)[C@@]1(C)CCC2(C[C@H]1C[C@H]3OC(C)=O)OOC1(CCC(C)CC1)OO2 (stereo not given in full) | 14.3 µM (inactive) | 50 µM (inactive) | 19.8 µM (inactive) | 15.9 µM (inactive) | 89.7 µM (inactive) | 3.65 µM (inactive) | 14.6 µM (inactive) | 26.7 µM (inactive) | 26.4 µM (inactive) | 2.17 µM (inactive) | 29.1 µM (inactive) | 20 µM (inactive) | 13.6 µM (inactive) | 23.5 µM (inactive) | 27.1 µM (inactive) | 1.72 µM (inactive) | 0.0376 µM (active) | 13.1 µM (inactive) | 22.2 µM (inactive)
CCN(CC)CCC(=O)c1ccc(Sc2ccc(F)cc2)cc1 | 25 µM (inactive) | 17 µM (inactive) | 17.1 µM (inactive) | 21.2 µM (inactive) | 17.8 µM (inactive) | 2.44 µM (inactive) | 17.1 µM (inactive) | 19.3 µM (inactive) | 20.5 µM (inactive) | > 100 µM (inactive) | 16.9 µM (inactive) | 15.8 µM (inactive) | 19.9 µM (inactive) | 17.7 µM (inactive) | 17.2 µM (inactive) | 18.7 µM (inactive) | 7.28 µM (inactive) | 20.1 µM (inactive) | 26.4 µM (inactive)
COc1ccc(-c2c(N)n(-c3cc(OC)cc(OC)c3)c(=O)c3cc([N+](=O)[O-])ccc23)cc1 | > 50.8 µM (inactive) | 11.1 µM (inactive) | 31.3 µM (inactive) | 7.4 µM (inactive) | > 100 µM (inactive) | 2.76 µM (inactive) | 18 µM (inactive) | > 100 µM (inactive) | 32.4 µM (inactive) | > 100 µM (inactive) | 28.6 µM (inactive) | 29.4 µM (inactive) | 38.3 µM (inactive) | > 100 µM (inactive) | 19.2 µM (inactive) | > 100 µM (inactive) | > 77.8 µM (inactive) | 2.47 µM (inactive) | 28 µM (inactive)
Clc1ccc(Nc2nnc(CNc3ccc(-c4nnc(Nc5ccc(Cl)cc5)o4)cc3)o2)cc1 | 14.3 µM (inactive) | 18.5 µM (inactive) | 11.8 µM (inactive) | 24.6 µM (inactive) | 17.2 µM (inactive) | 9.42 µM (inactive) | 15.9 µM (inactive) | 19.9 µM (inactive) | 17.1 µM (inactive) | 13.6 µM (inactive) | 7.93 µM (inactive) | 21.2 µM (inactive) | 22.3 µM (inactive) | 14.9 µM (inactive) | 17.7 µM (inactive) | 18.9 µM (inactive) | 7.13 µM (inactive) | 2.63 µM (inactive) | 14.9 µM (inactive)
COC1/C=C\C=C(/C)C(=O)NC2=CC(=O)C(O)=C(CC(C)CC(OC)C(O)C(C)/C=C(\C)C1OC(N)=O)C2=O (stereo not given) | 0.0364 µM (active) | 0.136 µM (active) | 0.253 µM (active) | 7.05 µM (inactive) | 0.316 µM (active) | 0.0789 µM (active) | 0.859 µM (active) | 4.99 µM (inactive) | 0.56 µM (active) | 4.79 µM (inactive) | 0.366 µM (active) | 5.7 µM (inactive) | 10.8 µM (inactive) | 1.5 µM (inactive) | 40.5 µM (inactive) | 13.7 µM (inactive) | 0.0282 µM (active) | 0.169 µM (active) | 38.5 µM (inactive)
